These results are taken from ChEMBL document CHEMBL1833888, “Fuscoside E: a strong anti-inflammatory diterpene from Caribbean octocoral Eunicea fusca” (2011).

By MIC is commonly meant the smallest concentration in the dilution series that meets the test's criterion for growth inhibition. High values mean weaker potency, low ones greater potency.

Converted amounts (≈) assume the structure as drawn. The source made the active and inactive calls.

Assay [1] has as its system Mus musculus. Put plainly: Antiinflammatory activity in mouse assessed as inhibition of TPA-induced mouse ear edema at 0.5 mg/ear administered relative to untreated control. It counts as functional.
Assay [2] deals with Bacillus sp. Put plainly: Antibacterial activity against Bacillus sp. by disc-diffusion assay. It counts as functional, organism-based. On the technique in general: A growth-free zone around the sample is the usual read-out of agar diffusion tests.
The test system of assay [3] is Brucella pseudogrignonensis. Put plainly: Antibacterial activity against Ochrobactrum pseudogrignonense 21-6 pin by disc-diffusion assay. It is filed as functional, organism-based.
Assay [4] has as its system Vibrio sp. The experiment in a line: Antibacterial activity against Vibrio sp. 11-6 DEP. It is filed as functional.

Regarding `C=C[C@@]1(C)CC[C@H](/C(C)=C/C=C/C(C)(C)O)C[C@@H]1C(=C)C` [FUSCOL], the “inhibition (INH)” value in assay [1] is listed as 27.3%.

On to `CC(=O)O[C@@H]1[C@H](O[C@H]2CC[C@H](C)[C@@]3(C)C[C@@H](/C(C)=C/CC=C(C)C)CC[C@H]23)OC[C@@H](O)[C@H]1O` [FUSCOSIDE E], for which the outcome in assay [2] and in assay [3] was Active. In addition, the “inhibition (INH)” value in assay [1] is on record as 80.5%.

As for `CC(C)C(C)/C=C/[C@@H](C)[C@H]1CC[C@H]2[C@@H]3CC=C4C[C@@H](O)CC[C@]4(C)[C@H]3CC[C@]12C` (some centres not stated), the result in assay [2] and in assay [3] was Active.

Turning to `C/C=C(\CC[C@@H](C)[C@H]1CC[C@H]2[C@@H]3CC=C4C[C@@H](O)CC[C@]4(C)[C@H]3CC[C@]12C)C(C)C`, the outcome in assay [2] and in assay [3] was Active.

In the case of `CC(C)CCC[C@@H](C)[C@H]1CC[C@H]2[C@@H]3CC=C4C[C@@H](O)CC[C@]4(C)[C@H]3CC[C@]12C`, the result in assay [2] and in assay [3] was Active.

On to `C/C=C(/CC[C@@H](C)[C@H]1CC[C@H]2[C@@H]3CC=C4C[C@@H](O)CC[C@]4(C)[C@H]3CC[C@]12C)C(C)C`, for which the outcome in assay [2] and in assay [3] was Active.

In the case of `COc1ccc2c(c1)c(CC(=O)O)c(C)n2C(=O)c1ccc(Cl)cc1` [INDOMETHACIN], in assay [1], the “inhibition (INH)” value amounted to 77.3%.

As to `CC(C)C(C)CC[C@@H](C)[C@H]1CC[C@H]2[C@@H]3CC=C4C[C@@H](O)CC[C@]4(C)[C@H]3CC[C@]12C` (some centres not stated), the outcome in assay [2] and in assay [3] was Active.

For `C=C1/C=C/[C@@H](C(C)C)CC/C(C)=C/CC1`, the result in assay [2] and in assay [3] was Active. Besides, in assay [4], the lowest concentration to inhibit growth (MIC) was 15 µg/mL (≈ 73.4 µM). Besides, the “inhibition (INH)” value in assay [1] worked out at 7.1%.

On to `C=C[C@@]1(C)CC[C@H](/C(C)=C/C=C/C(C)(C)O[C@@H]2OC[C@@H](O)[C@@H](O)[C@@H]2O)C[C@@H]1C(=C)C` [FUSCOSIDE B], for which, in assay [1], the “inhibition (INH)” value is given as 81.5%.

As to `CC(C)C/C=C/[C@@H](C)[C@H]1CC[C@H]2[C@@H]3CC=C4C[C@@H](O)CC[C@]4(C)[C@H]3CC[C@]12C`, the result in assay [2] and in assay [3] was Active.
